# Source: US12655116B2, “Substituted isophthalic acid diamides” (Bayer Aktiengesellschaft, priority 2020, dated 2026)
# How the values were obtained:
# VIOTR [1] = assay: Pre-emergence herbicidal action against VIOTR; format: in vivo, Viola tricolor; details: Viola tricolor, 504 h; for pest or weed control at 20 g/ha: dosage 20 g/ha; for pest or weed control at 80 g/ha: dosage 80 g/ha
# How it was run: (§1)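 Visual rating at 3 weeks vs untreated pots; 0–100% scale, 100% = plants died. Treatment: aqueous WP/EC spray onto covering soil, 600–800 l/ha, 0.2% wetter, seeds in sandy loam.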
# VIOTR [2] = assay: Post-emergence herbicidal action against VIOTR; format: in vivo, Viola tricolor; details: Viola tricolor, 504 h, 20 g/ha
# How it was run: (§2)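 Weeds in sandy loam soil received a post-emergence spray at the one-leaf stage. Compounds were applied as WP or EC in water, 600 to 800 l/ha, with 0.2% wetting agent. Activity in % was judged visually after roughly 3 weeks against untreated plants.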
# ABUTH [3] = assay: Pre-emergence herbicidal action against ABUTH; format: in vivo, Abutilon theophrasti; details: Abutilon theophrasti, 504 h; for pest or weed control at 80 g/ha: scored visually after 3 weeks vs untreated controls (100% = plants have died, 0% = like control plants)
# How it was run: as §1
# DIGSA [4] = assay: Pre-emergence herbicidal action against DIGSA; format: in vivo, Digitaria sanguinalis; details: Digitaria sanguinalis, 504 h; for pest or weed control at 80 g/ha: dosage 80 g/ha
# How it was run: as §1
# ALOMY [5] = assay: Pre-emergence herbicidal action against ALOMY; format: in vivo, Alopecurus myosuroides; details: Alopecurus myosuroides, 504 h, pre-emergence; for pest or weed control at 80 g/ha: scored visually after 3 weeks vs untreated controls (100% = plants have died, 0% = like control plants); for pest or weed control at 20 g/ha: scored visually after 3 weeks, 100% = plants have died, 0% = like control plants
# How it was run: as §1
# SETVI [6] = assay: Pre-emergence herbicidal action against SETVI; format: in vivo, Setaria viridis; details: Setaria viridis, 504 h; for pest or weed control at 80 g/ha: dosage 80 g/ha
# How it was run: as §1
# SETVI [7] = assay: Post-emergence herbicidal action against SETVI; format: in vivo, Setaria viridis; details: Setaria viridis, 504 h; for pest or weed control at 20 g/ha: dosage 20 g/ha
# How it was run: as §2
# VERPE [8] = assay: Pre-emergence herbicidal action against VERPE; format: in vivo, Veronica persica; details: Veronica persica, 504 h; for pest or weed control at 80 g/ha: dosage 80 g/ha
# How it was run: as §1
# ALOMY [9] = assay: Post-emergence herbicidal action against ALOMY; format: in vivo, Alopecurus myosuroides; details: Alopecurus myosuroides, 504 h, visual assessment about 3 weeks after treatment vs untreated controls; for pest or weed control at 5 g/ha: dosage 5 g/ha; for pest or weed control at 20 g/ha: dosage 20 g/ha
# How it was run: as §2
# PHBPU [10] = assay: Post-emergence herbicidal action against PHBPU; format: in vivo, Pharbitis purpurea; details: Ipomoea purpurea, 504 h; for pest or weed control at 20 g/ha: dosage 20 g/ha
# How it was run: as §2
# AVEFA [11] = assay: Pre-emergence herbicidal action against AVEFA; format: in vivo, Avena fatua; details: Avena fatua, 504 h, pre-emergence
# How it was run: as §1
# MATIN [12] = assay: Post-emergence herbicidal action against MATIN; format: in vivo, Matricaria inodora; details: Tripleurospermum inodorum, 504 h; for pest or weed control at 5 g/ha: dosage 5 g/ha; for pest or weed control at 20 g/ha: dosage 20 g/ha
# How it was run: as §2
# LOLRI = assay: Pre-emergence herbicidal action against LOLRI; format: in vivo, Lolium rigidum; details: Lolium rigidum, 504 h, 80 g/ha
# How it was run: as §1
# ABUTH [13] = assay: Post-emergence herbicidal action against ABUTH; format: in vivo, Abutilon theophrasti; details: Abutilon theophrasti, 504 h, visual assessment about 3 weeks after treatment vs untreated controls; for pest or weed control at 5 g/ha: dosage 5 g/ha; for pest or weed control at 20 g/ha: dosage 20 g/ha
# How it was run: as §2
# AMARE [14] = assay: Post-emergence herbicidal action against AMARE; format: in vivo, Amaranthus retroflexus; details: Amaranthus retroflexus, 504 h, 20 g/ha, visual assessment about 3 weeks after treatment, 100% = plants have died, 0% = like control plants
# How it was run: as §2
# ECHCG [15] = assay: Post-emergence herbicidal action against ECHCG; format: in vivo, Echinochloa crus-galli; details: Echinochloa crus-galli, 504 h, dosage 20 g/ha
# How it was run: as §2
# AMARE [16] = assay: Pre-emergence herbicidal action against AMARE; format: in vivo, Amaranthus retroflexus; details: Amaranthus retroflexus, 504 h, scored visually after 3 weeks vs untreated controls, 100% = plants have died, 0% = like control plants
# How it was run: as §1
# MATIN [17] = assay: Pre-emergence herbicidal action against MATIN; format: in vivo, Matricaria inodora; details: Tripleurospermum inodorum, 504 h; for pest or weed control at 20 g/ha: dosage 20 g/ha; for pest or weed control at 80 g/ha: dosage 80 g/ha
# How it was run: as §1
# AVEFA [18] = assay: Post-emergence herbicidal action against AVEFA; format: in vivo, Avena fatua; details: Avena fatua, 504 h, 20 g/ha, visual assessment about 3 weeks after treatment, 100% = plants have died, 0% = like control plants
# How it was run: as §2
# ECHCG [19] = assay: Pre-emergence herbicidal action against ECHCG; format: in vivo, Echinochloa crus-galli; details: Echinochloa crus-galli, 504 h
# How it was run: as §1
# PHBPU [20] = assay: Pre-emergence herbicidal action against PHBPU; format: in vivo, Pharbitis purpurea; details: Ipomoea purpurea, 504 h, dosage 80 g/ha
# How it was run: as §1
# DIGSA [21] = assay: Post-emergence herbicidal action against DIGSA; format: in vivo, Digitaria sanguinalis; details: Digitaria sanguinalis, 504 h
# How it was run: as §2
# POLCO = assay: Pre-emergence herbicidal action against POLCO; format: in vivo, Polygonum convolvulus; details: Fallopia convolvulus, 504 h
# How it was run: as §1
# VERPE [22] = assay: Post-emergence herbicidal action against VERPE; format: in vivo, Veronica persica; details: Veronica persica, 504 h
# How it was run: as §2
Compound,pest or weed control at 20 g/ha (VIOTR [1]) [%],pest or weed control at 80 g/ha (VIOTR [1]) [%],pest or weed control at 20 g/ha (VIOTR [2]) [%],pest or weed control at 80 g/ha (ABUTH [3]) [%],pest or weed control at 80 g/ha (DIGSA [4]) [%],pest or weed control at 80 g/ha (ALOMY [5]) [%],pest or weed control at 20 g/ha (ALOMY [5]) [%],pest or weed control at 80 g/ha (SETVI [6]) [%],pest or weed control at 20 g/ha (SETVI [7]) [%],pest or weed control at 80 g/ha (VERPE [8]) [%],pest or weed control at 5 g/ha (ALOMY [9]) [%],pest or weed control at 20 g/ha (ALOMY [9]) [%],pest or weed control at 20 g/ha (PHBPU [10]) [%],pest or weed control at 80 g/ha (AVEFA [11]) [%],pest or weed control at 5 g/ha (MATIN [12]) [%],pest or weed control at 20 g/ha (MATIN [12]) [%],pest or weed control at 80 g/ha (LOLRI) [%],pest or weed control at 5 g/ha (ABUTH [13]) [%],pest or weed control at 20 g/ha (ABUTH [13]) [%],pest or weed control at 20 g/ha (AMARE [14]) [%],also measured
CCNC(=O)c1c(Br)ccc(C(=O)Nc2nnnn2CC)c1Cl [Example 2-178],100,100,90,100,100,100,80,100,90,90,80,90,90,100,90,90,80,90,90,100,"pest or weed control at 20 g/ha (DIGSA [4]; dosage 20 g/ha): 100%; pest or weed control at 20 g/ha (AVEFA [11]; 20 g/ha, scored visually after 3 weeks, 100% = plants have died, 0% = like control plants): 90%; pest or weed control at 20 g/ha (ECHCG [15]): 90%; pest or weed control at 20 g/ha (AMARE [16]): 100%; pest or weed control at 80 g/ha (AMARE [16]): 100%; pest or weed control at 20 g/ha (MATIN [17]): 90%; pest or weed control at 80 g/ha (MATIN [17]): 100%; pest or weed control at 20 g/ha (AVEFA [18]): 80%; pest or weed control at 80 g/ha (ECHCG [19]): 100%"
CCNC(=O)c1c(C(F)(F)C(F)(F)F)ccc(C(=O)Nc2nnnn2C)c1Cl [Example 1-166],100,100,80,100,90,100,90,100,90,100,80,90,90,100,80,80,80,90,90,90,"pest or weed control at 20 g/ha (ABUTH [3]; dosage 20 g/ha, scored visually after 3 weeks vs untreated controls, 100% = plants have died, 0% = like control plants, read-out: Pre-emergence action against ABUTH (herbicidal activity in percent)): 90%; pest or weed control at 20 g/ha (SETVI [6]; dosage 20 g/ha): 80%; pest or weed control at 80 g/ha (PHBPU [20]): 80%; pest or weed control at 5 g/ha (SETVI [7]; dosage 5 g/ha): 90%; pest or weed control at 5 g/ha (DIGSA [21]; 5 g/ha): 90%; pest or weed control at 20 g/ha (DIGSA [21]; 20 g/ha): 90%; pest or weed control at 20 g/ha (VERPE [8]; dosage 20 g/ha): 80%; pest or weed control at 5 g/ha (PHBPU [10]; dosage 5 g/ha): 80%; pest or weed control at 20 g/ha (POLCO; dosage 20 g/ha): 100%; pest or weed control at 80 g/ha (POLCO; dosage 80 g/ha): 100%; pest or weed control at 5 g/ha (VERPE [22]; 5 g/ha): 80%; pest or weed control at 20 g/ha (VERPE [22]; 20 g/ha): 90%; pest or weed control at 20 g/ha (ECHCG [15]): 90%; pest or weed control at 20 g/ha (AMARE [16]): 100%; pest or weed control at 80 g/ha (AMARE [16]): 100%; pest or weed control at 20 g/ha (MATIN [17]): 100%; pest or weed control at 80 g/ha (MATIN [17]): 100%; pest or weed control at 20 g/ha (ECHCG [19]; 20 g/ha): 90%; pest or weed control at 80 g/ha (ECHCG [19]): 100%"
